Source: the NIST ThermoML archive (doi:10.1016/j.jct.2006.12.004)
Numbers after ± are expanded uncertainties.

Experiment: refractive index (Na D-line) (dimensionless)
Settings: 293.1 K; 101.33 kPa; Liquid; Standard Abbe refractometry

Row | Compound | refractive index
1 | O=CN1CCOCC1 [N-formylmorpholine] | 1.484 ± 0.0007
2 | Cc1ccccc1 [toluene] | 1.4873 ± 0.0007
3 | Cc1cccc(C)c1 [1,3-dimethylbenzene] | 1.4943 ± 0.0007

The remaining lines, values ahead:

Row | refractive index | Compound
4 | 1.5024 ± 0.0007 | c1ccccc1 [benzene]
5 | 1.3882 ± 0.0007 | CCCCCCC [heptane]
